# US6358885B1, “Substituted phenylheterocyclic herbicides” (Mississippi State University, priority 1992, dated 2002)
# Columns and labels:
# wheat = test: Test C preemergence/postemergence greenhouse plant response rating 0 to 100; assay type: in vivo, Triticum aestivum; settings: POSTEMERGENCE; for Plant response rating, Wheat: 0 to 100 scale
# In short: (§1)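 Compounds in non-phytotoxic solvent went onto sandy loam before emergence (seeded one day earlier) or onto plants at the one-to-four leaf stage. Duck salad was treated via flood water (~2.5 cm, maintained) over silt loam.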
# sorghum = test: Test B preemergence/postemergence greenhouse plant response rating 0 to 10; assay type: in vivo, Sorghum bicolor; settings: 0 to 10 scale
# In short: (§2)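 Both application timings were run together: seeds got compound preemergence, and established seedlings (two to eighteen cm) got it postemergence. Non-phytotoxic solvent carried the chemical. Ratings are visual, versus controls, at twelve to sixteen days.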
# velvetleaf = test: as above; assay type: in vivo, Abutilon theophrasti; settings: 0 to 10 scale
# In short: as §2
# rape = test: Test C preemergence/postemergence greenhouse plant response rating 0 to 100; assay type: in vivo, Brassica napus; settings: POSTEMERGENCE; for Plant response rating, Rape: 0 to 100 scale
# In short: as §1
# corn [1] = test: as above; assay type: in vivo, Zea mays; settings: POSTEMERGENCE; for Plant response rating, Corn: 0 to 100 scale
# In short: as §1
# ryegrass = test: as above; assay type: in vivo, Lolium multiflorum; settings: POSTEMERGENCE; for Plant response rating Ryegrass: 0 to 100 scale
# In short: as §1
# rice = test: Test C flood test plant response rating 0 to 100; assay type: in vivo, Oryza sativa; settings: for Plant response rating Rice Japonica: flood test species listed under POSTEMERGENCE, 0 to 100 scale
# In short: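 Compounds in non-phytotoxic solvent applied preemergence to sandy loam one day after planting, postemergence at the 1–4 leaf stage, or to ~2.5 cm floodwater over silt loam.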
# chickweed = test: Test B preemergence/postemergence greenhouse plant response rating 0 to 10; assay type: in vivo, Stellaria media; settings: 0 to 10 scale
# In short: as §2
# barnyardgrass = test: as above; assay type: in vivo, Echinochloa crus-galli; settings: 0 to 10 scale
# In short: as §2
# wild oat = test: Test C preemergence/postemergence greenhouse plant response rating 0 to 100; assay type: in vivo, Avena fatua; settings: POSTEMERGENCE; for Plant response rating, Wild oat: 0 to 100 scale
# In short: as §1
# barley = test: Test B preemergence/postemergence greenhouse plant response rating 0 to 10; assay type: in vivo, Hordeum vulgare; settings: 0 to 10 scale
# In short: as §2
# sugar beet = test: as above; assay type: in vivo, Beta vulgaris; settings: 0 to 10 scale
# In short: as §2
# corn [2] = test: as above; assay type: in vivo, Zea mays; settings: 0 to 10 scale
# In short: as §2
# purple nutsedge = test: as above; assay type: in vivo, Cyperus rotundus; settings: 0 to 10 scale
# In short: as §2
# morningglory = test: Test C preemergence/postemergence greenhouse plant response rating 0 to 100; assay type: in vivo, Ipomoea hederacea; settings: POSTEMERGENCE; for Plant response rating, Morningglory: 0 to 100 scale
# In short: as §1
# crabgrass = test: as above; assay type: in vivo, Digitaria sanguinalis; settings: POSTEMERGENCE; for Plant response rating, Crabgrass: 0 to 100 scale
# In short: as §1
# bedstraw = test: as above; assay type: in vivo, Galium aparine; settings: POSTEMERGENCE; for Plant response rating, Bedstraw: 0 to 100 scale
# In short: as §1
# blackgrass = test: Test B preemergence/postemergence greenhouse plant response rating 0 to 10; assay type: in vivo, Alopecurus myosuroides; settings: 0 to 10 scale
# In short: as §2
smiles,measurement,setting,value
CC(C)OC(=O)c1cc(-c2nn3c(c2Cl)CCCC3)c(F)cc1Cl [Compound 44],"Plant response rating, Wheat",wheat; 62 g/ha,50
same,"Plant response rating, Wheat",wheat; 250 g/ha,80
same,"Plant response rating (0 to 100), Wheat",wheat; Rate 4 g/ha,20
same,"Plant response rating (0 to 100), Wheat",wheat; Rate 16 g/ha,30
same,"Plant response rating, Sorghum","sorghum; POSTEMERGENCE, Rate 50 g/ha",4
same,"Plant response rating, Sorghum","sorghum; PREEMERGENCE, Rate 50 g/ha",1
same,"Plant response rating, Sorghum","sorghum; Rate 200 g/ha, POSTEMERGENCE",5
same,"Plant response rating, Sorghum","sorghum; Rate 200 g/ha, PREEMERGENCE",2
same,"Plant response rating, Velvetleaf","velvetleaf; POSTEMERGENCE, Rate 50 g/ha",9
same,"Plant response rating, Velvetleaf","velvetleaf; PREEMERGENCE, Rate 50 g/ha",4
same,"Plant response rating, Velvetleaf","velvetleaf; Rate 200 g/ha, POSTEMERGENCE",10
same,"Plant response rating, Velvetleaf","velvetleaf; Rate 200 g/ha, PREEMERGENCE",8
same,"Plant response rating, Rape",rape; 62 g/ha,100
same,"Plant response rating, Rape",rape; 250 g/ha,100
same,"Plant response rating (0 to 100), Rape",rape; Rate 4 g/ha,40
same,"Plant response rating (0 to 100), Rape",rape; Rate 16 g/ha,70
same,"Plant response rating, Corn",corn [1]; 62 g/ha,50
same,"Plant response rating, Corn",corn [1]; 250 g/ha,90
same,"Plant response rating (0 to 100), Corn",corn [1]; Rate 4 g/ha,30
same,"Plant response rating (0 to 100), Corn",corn [1]; Rate 16 g/ha,40
same,Plant response rating Ryegrass,ryegrass; 62 g/ha,50
same,Plant response rating Ryegrass,ryegrass; 250 g/ha,90
same,"Plant response rating (0 to 100), Ryegrass",ryegrass; Rate 4 g/ha,20
same,"Plant response rating (0 to 100), Ryegrass",ryegrass; Rate 16 g/ha,30
same,"Plant response rating (0 to 100), Rice Japonica","rice; POSTEMERGENCE section, flood test, Rate 4 g/ha",10
same,"Plant response rating (0 to 100), Rice Japonica","rice; Rate 16 g/ha, under POSTEMERGENCE head (flood test species)",30
same,Plant response rating Rice Japonica,rice; 62 g/ha,60
same,Plant response rating Rice Japonica,rice; 250 g/ha,85
same,"Plant response rating, Chickweed","chickweed; POSTEMERGENCE, Rate 200 g/ha",10
same,"Plant response rating, Chickweed","chickweed; PREEMERGENCE, Rate 50 g/ha",9
same,"Plant response rating, Chickweed","chickweed; Rate 200 g/ha, PREEMERGENCE",9
same,"Plant response rating, Barnyardgrass","barnyardgrass; POSTEMERGENCE, Rate 50 g/ha",8
same,"Plant response rating, Barnyardgrass","barnyardgrass; POSTEMERGENCE, Rate 200 g/ha",10
same,"Plant response rating, Barnyardgrass","barnyardgrass; PREEMERGENCE, Rate 50 g/ha",5
same,"Plant response rating, Barnyardgrass","barnyardgrass; Rate 200 g/ha, PREEMERGENCE",8
same,"Plant response rating, Wild oat",wild oat; 62 g/ha,50
same,"Plant response rating, Wild oat",wild oat; 250 g/ha,60
same,"Plant response rating (0 to 100), Wild oat",wild oat; Rate 4 g/ha,20
same,"Plant response rating (0 to 100), Wild oat",wild oat; Rate 16 g/ha,30
same,"Plant response rating, Barley","barley; POSTEMERGENCE, Rate 50 g/ha",4
same,"Plant response rating, Barley","barley; POSTEMERGENCE, Rate 200 g/ha",6
same,"Plant response rating, Barley","barley; PREEMERGENCE, Rate 50 g/ha",1
same,"Plant response rating, Barley","barley; Rate 200 g/ha, PREEMERGENCE",2
same,"Plant response rating, Sugar beet","sugar beet; POSTEMERGENCE, Rate 50 g/ha",10
same,"Plant response rating, Sugar beet","sugar beet; PREEMERGENCE, Rate 50 g/ha",10
same,"Plant response rating, Sugar beet","sugar beet; Rate 200 g/ha, POSTEMERGENCE",10
same,"Plant response rating, Sugar beet","sugar beet; Rate 200 g/ha, PREEMERGENCE",10
same,"Plant response rating, Corn","corn [2]; POSTEMERGENCE, Rate 50 g/ha",4
same,"Plant response rating, Corn","corn [2]; POSTEMERGENCE, Rate 200 g/ha",6
same,"Plant response rating, Corn","corn [2]; PREEMERGENCE, Rate 50 g/ha",2
same,"Plant response rating, Corn","corn [2]; Rate 200 g/ha, PREEMERGENCE",3
same,"Plant response rating, Nutsedge","purple nutsedge; POSTEMERGENCE, Rate 50 g/ha",4
same,"Plant response rating, Nutsedge","purple nutsedge; PREEMERGENCE, Rate 50 g/ha",0
same,"Plant response rating, Nutsedge","purple nutsedge; Rate 200 g/ha, POSTEMERGENCE",8
same,"Plant response rating, Nutsedge","purple nutsedge; Rate 200 g/ha, PREEMERGENCE",3
same,"Plant response rating, Morningglory",morningglory; 62 g/ha,95
same,"Plant response rating, Morningglory",morningglory; 250 g/ha,100
same,"Plant response rating (0 to 100), Morningglory",morningglory; Rate 4 g/ha,50
same,"Plant response rating (0 to 100), Morningglory",morningglory; Rate 16 g/ha,70
same,"Plant response rating, Crabgrass",crabgrass; 62 g/ha,40
same,"Plant response rating, Crabgrass",crabgrass; 250 g/ha,50
same,"Plant response rating (0 to 100), Crabgrass",crabgrass; Rate 4 g/ha,20
same,"Plant response rating (0 to 100), Crabgrass",crabgrass; Rate 16 g/ha,30
same,"Plant response rating, Bedstraw",bedstraw; 62 g/ha,80
same,"Plant response rating, Bedstraw",bedstraw; 250 g/ha,100
same,"Plant response rating (0 to 100), Bedstraw",bedstraw; Rate 4 g/ha,60
same,"Plant response rating (0 to 100), Bedstraw",bedstraw; Rate 16 g/ha,80
same,"Plant response rating, Blackgrass","blackgrass; POSTEMERGENCE, Rate 50 g/ha",8
same,"Plant response rating, Blackgrass","blackgrass; POSTEMERGENCE, Rate 200 g/ha",9
same,"Plant response rating, Blackgrass","blackgrass; PREEMERGENCE, Rate 50 g/ha",4
same,"Plant response rating, Blackgrass","blackgrass; Rate 200 g/ha, PREEMERGENCE",6
